Columns and labels:
Rhesus monkeys [1] = system: Rhesus monkeys
Experimental: (§1) Rhesus monkeys were anesthetized with ketainine (5 mg/Kg) and thiopental (5 mg/Kg) given intramuscularly or intravenously. Anesthesia was maintained with a mixture of halothane (1.5%), nitrous oxide (60%) and oxygen (40%). The common peroneal nerve was stimulated supramaximally with square wave pulses of 0.2 m sec duration at a rate of 0.15 Hz. Twitch contractions were recorded via the tendon of the extensor digitorum muscle.
In all animals, the trachea was intubated and ventilation was controlled at 12-15 ml/kg, 18-24 breaths per minute. A peripheral vein and artery were cannulated for drug administration and for recording of arterial pressure, respectively. A dosage of 0.1 mg/kg of the 353044 intermediate duration halofumarate neuromuscular blocking agent was administered intravenously. The 353044 intermediate duration halofumarate neuromuscular blocking agent has the following structure, wherein X is Cl. [drawing 11]
For comparison, 0.5 mg/kg of the ultra-short 280430A halofumarate neuromuscular blocking agent was administered to a separate set of animals. […] Animals that had received the 353044 intermediate duration halofumarate neuromuscular blocking agent, then received a combination of […] 10 mg/kg glutathione.

Rhesus monkeys [2] = test: Recovery of twitch response from GW 280430A neuromuscular block with or without cysteine-like antagonist; format: in vivo
Experimental: as §1, with “ketamine” for “ketainine”
In all animals, the trachea was intubated and ventilation was controlled at 12-15 ml/kg, 18-24 breaths per minute. A peripheral vein and artery were cannulated for drug administration and for recording or arterial pressure, respectively.
Rhesus monkeys were anesthetized and treated with a halofumarate neuromuscular blocking agent as described in Example 1.
Several tests were generally run (#1, #2, #3, etc.) with time in between each test so that the animal could recover.

Rhesus monkeys [3] = conditions: GW 280430A-treated animals
Experimental: Rhesus monkeys were anesthetized with ketamine (5 mg/Kg) and thiopental (5 mg/Kg) given intramuscularly or intravenously. Anesthesia was maintained with a mixture of halothane (1.5%), nitrous oxide (60%) and oxygen (40%). The common peroneal nerve was stimulated supramaximally with square wave pulses of 0.2 m sec duration at a rate of 0.15 Hz. Twitch contractions were recorded via the tendon of the extensor digitorum muscle.

[4] = Buck 13.2, Baseline (430A, no cysteine)
[5] = Count 13.1 kg, #3, 0.2 mg/kg 430A alone
[6] = Impy 12.5 kg, #1, 0.05 mg/kg 430A alone
[7] = Impy 12.5 kg, #3, 0.05 mg/kg 430A alone
[8] = Means of Skye, Impy & Count, Baseline (430A, no cysteine)
[9] = Means of Skye, Impy and Buck, Baseline (430A, no cysteine)
[10] = Morgan 12.4 kg, #1, 0.05 mg/kg 430A alone
[11] = Morgan 12.4 kg, #2, 0.01 mg/kg 430A alone
[12] = Skye 11.6 kg, Baseline (430A, no cysteine)
[13] = Skye 12.1 kg, #1, 0.05 mg/kg 430A alone
[14] = Skye 12.1 kg, #3, 0.05 mg/kg 430A alone
[15] = 5 mg/kg antagonist after GW 280430A, FIG. 4, FIG. 5
[16] = #4 (after 3 administrations of 430A), 0.05 mg/kg 430A & cysteine 5 mg/kg
[17] = #4 (after 3 administrations of 430A), 0.05 mg/kg 430A & cysteine 10 mg/kg
[18] = Buck 13.2, 0.2 mg/kg 430A & cysteine 10.0 mg/kg
[19] = Count 13.1 kg, #4, 0.2 mg/kg 430A & cysteine 4 mg/kg
[20] = Impy 12.5 kg, #2, 0.05 mg/kg 430A & cysteine 5 mg/kg
[21] = Means of Skye, Impy & Count, 0.05 mg/kg 430A & cysteine 4 or 5 mg/kg
[22] = Means of Skye, Impy and Buck, 430A & Cysteine 10 mg/kg
[23] = Morgan 12.4 kg, #3, 0.1 mg/kg 430A & cysteine 20 mg/kg
[24] = Skye 11.6 kg, 0.2 mg/kg 430A & cysteine 10.0 mg/kg
[25] = Skye 12.1 kg, #2, 0.05 mg/kg 430A & cysteine 2 mg/kg

SMILES: COc1cc2c(cc1OC)[C@H](c1cc(OC)c(OC)c(OC)c1)[N@@+](C)(CCCOC(=O)/C=C(\Cl)C(=O)OCCC[N@+]1(C)CCc3cc(OC)c(OC)cc3[C@H]1Cc1cc(OC)c(OC)c(OC)c1)CC2.[Cl-].[Cl-] [GW 280430A, (Z)-2-Chloro-4-{3-[(1S,2R)-6,7-dimethoxy-2-methyl-1-(3,4,5-trimethoxyphenyl)-1,2,3,4-tetrahydro-2-isoquinolinio]propyl}-1-{3{(1R,2S)-6,7-dimethoxy-2-methyl-1-[(3,4,5-trimethoxyphenyl)methyl]-1,2,3,4-tetrahydro-2-isoquinolinio}propyl}-2-butenedioate dichloride]
- speed of recovery compared with 353044, with antagonist (Rhesus monkeys [1]; 0.50 mg/kg GW 280430A + 5 mg/kg cysteine vs 0.10 mg/kg 353044 + cysteine and glutathione, FIG. 9): again faster
- speed of recovery compared with 353044, no antagonist (Rhesus monkeys [1]; 0.50 mg/kg GW 280430A vs 0.10 mg/kg 353044, FIG. 9 solid lines): recovered faster
- 25-75% recovery interval (Rhesus monkeys [2]; [4]): 54 s
- Recovery 5-95% (Rhesus monkeys [2]; [4]): 114 s
- time to 5% twitch recovery (Rhesus monkeys [2]; [4]): 12 s
- time to 25% twitch recovery (Rhesus monkeys [2]; [4]): 48 s
- time to 75% twitch recovery (Rhesus monkeys [2]; [4]): 102 s
- time to 95% twitch recovery (Rhesus monkeys [2]; [4]): 126 s
- Recovery 5% (Rhesus monkeys [2]; [5]): 9 s
- Recovery 5-95% (Rhesus monkeys [2]; [5]): 75 s
- Recovery 25% (Rhesus monkeys [2]; [5]): 24 s
- Recovery 25-75% (Rhesus monkeys [2]; [5]): 33 s
- Recovery 75% (Rhesus monkeys [2]; [5]): 57 s
- Recovery 95% (Rhesus monkeys [2]; [5]): 84 s
- Recovery 5% (Rhesus monkeys [2]; [6]): 30 s
- Recovery 5-95% (Rhesus monkeys [2]; [6]): 141 s
- Recovery 25% (Rhesus monkeys [2]; [6]): 63 s
- Recovery 25-75% (Rhesus monkeys [2]; [6]): 57 s
- Recovery 75% (Rhesus monkeys [2]; [6]): 120 s
- Recovery 95% (Rhesus monkeys [2]; [6]): 171 s
- Recovery 75% (Rhesus monkeys [2]; [7]): 45 s
- Recovery 95% (Rhesus monkeys [2]; [7]): 78 s
- 25-75% recovery interval (Rhesus monkeys [2]; [8]): 75 s
- Recovery 5-95% (Rhesus monkeys [2]; [8]): 193 s
- time to 5% twitch recovery (Rhesus monkeys [2]; [8]): 16 s
- time to 25% twitch recovery (Rhesus monkeys [2]; [8]): 46 s
- time to 75% twitch recovery (Rhesus monkeys [2]; [8]): 121 s
- time to 95% twitch recovery (Rhesus monkeys [2]; [8]): 209 s
- 25-75% recovery interval (Rhesus monkeys [2]; [9]): 77 s
- Recovery 5-95% (Rhesus monkeys [2]; [9]): 193 s
- time to 5% twitch recovery (Rhesus monkeys [2]; [9]): 22 s
- time to 25% twitch recovery (Rhesus monkeys [2]; [9]): 61 s
- time to 75% twitch recovery (Rhesus monkeys [2]; [9]): 138 s
- time to 95% twitch recovery (Rhesus monkeys [2]; [9]): 215 s
- Recovery 25% (Rhesus monkeys [2]; [10]): 40 s
- Recovery 25-75% (Rhesus monkeys [2]; [10]): 103 s
- Recovery 75% (Rhesus monkeys [2]; [10]): 143 s
- Recovery 95% (Rhesus monkeys [2]; [10]): 233 s
- Recovery 5% (Rhesus monkeys [2]; [11]): 30 s
- Recovery 5-95% (Rhesus monkeys [2]; [11]): 282 s
- Recovery 25% (Rhesus monkeys [2]; [11]): 42 s
- Recovery 25-75% (Rhesus monkeys [2]; [11]): 144 s
- Recovery 75% (Rhesus monkeys [2]; [11]): 186 s
- Recovery 95% (Rhesus monkeys [2]; [11]): 312 s
- 25-75% recovery interval (Rhesus monkeys [2]; [12]): 120 s
- Recovery 5-95% (Rhesus monkeys [2]; [12]): 324 s
- time to 5% twitch recovery (Rhesus monkeys [2]; [12]): 24 s
- time to 25% twitch recovery (Rhesus monkeys [2]; [12]): 72 s
- time to 75% twitch recovery (Rhesus monkeys [2]; [12]): 192 s
- time to 95% twitch recovery (Rhesus monkeys [2]; [12]): 348 s
- Recovery 5% (Rhesus monkeys [2]; [13]): 9 s
- Recovery 5-95% (Rhesus monkeys [2]; [13]): 363 s
- Recovery 25% (Rhesus monkeys [2]; [13]): 51 s
- Recovery 25-75% (Rhesus monkeys [2]; [13]): 135 s
- Recovery 75% (Rhesus monkeys [2]; [13]): 186 s
- Recovery 95% (Rhesus monkeys [2]; [13]): 372 s
- Recovery 25% (Rhesus monkeys [2]; [14]): 143 s
- Recovery 25-75% (Rhesus monkeys [2]; [14]): 122 s
- Recovery 75% (Rhesus monkeys [2]; [14]): 265 s
- Recovery 95% (Rhesus monkeys [2]; [14]): 368 s

SMILES: CC(=O)N[C@@H](CS)C(=O)O [N-acetylcysteine, reference compound]
- time to complete reversal of the block in neuromuscular activity after administration (Rhesus monkeys [2]; [15]): ≤ 165 s

SMILES: N[C@@H](CS)C(=O)O [cysteine]
- time to complete reversal of the block in neuromuscular activity after administration (Rhesus monkeys [2]; 5 mg/kg cysteine after GW 280430A, FIG. 3): ≤ 100 s
- 25-75% recovery interval (Rhesus monkeys [2]; [16]): 63 s
- Recovery 5-95% (Rhesus monkeys [2]; [16]): 237 s
- time to 5% twitch recovery (Rhesus monkeys [2]; [16]): 15 s
- time to 25% twitch recovery (Rhesus monkeys [2]; [16]): 39 s
- time to 75% twitch recovery (Rhesus monkeys [2]; [16]): 102 s
- time to 95% twitch recovery (Rhesus monkeys [2]; [16]): 252 s
- 25-75% recovery interval (Rhesus monkeys [2]; [17]): 15 s
- Recovery 5-95% (Rhesus monkeys [2]; [17]): 96 s
- time to 5% twitch recovery (Rhesus monkeys [2]; [17]): 18 s
- time to 25% twitch recovery (Rhesus monkeys [2]; [17]): 51 s
- time to 75% twitch recovery (Rhesus monkeys [2]; [17]): 66 s
- time to 95% twitch recovery (Rhesus monkeys [2]; [17]): 114 s
- 25-75% recovery interval (Rhesus monkeys [2]; [18]): 2 s
- Recovery 5-95% (Rhesus monkeys [2]; [18]): 42 s
- time to 5% twitch recovery (Rhesus monkeys [2]; [18]): 6 s
- time to 25% twitch recovery (Rhesus monkeys [2]; [18]): 24 s
- time to 75% twitch recovery (Rhesus monkeys [2]; [18]): 26 s
- time to 95% twitch recovery (Rhesus monkeys [2]; [18]): 48 s
- Recovery 5% (Rhesus monkeys [2]; [19]): 9 s
- Recovery 5-95% (Rhesus monkeys [2]; [19]): 27 s
- Recovery 25% (Rhesus monkeys [2]; [19]): 15 s
- Recovery 25-75% (Rhesus monkeys [2]; [19]): 15 s
- Recovery 75% (Rhesus monkeys [2]; [19]): 30 s
- Recovery 95% (Rhesus monkeys [2]; [19]): 36 s
- Recovery 5% (Rhesus monkeys [2]; [20]): 6 s
- Recovery 5-95% (Rhesus monkeys [2]; [20]): 90 s
- Recovery 25% (Rhesus monkeys [2]; [20]): 33 s
- Recovery 25-75% (Rhesus monkeys [2]; [20]): 15 s
- Recovery 75% (Rhesus monkeys [2]; [20]): 48 s
- Recovery 95% (Rhesus monkeys [2]; [20]): 96 s
- 25-75% recovery interval (Rhesus monkeys [2]; [21]): 31 s
- time to 5% twitch recovery (Rhesus monkeys [2]; [21]): 10 s
- time to 25% twitch recovery (Rhesus monkeys [2]; [21]): 29 s
- time to 75% twitch recovery (Rhesus monkeys [2]; [21]): 60 s
- time to 95% twitch recovery (Rhesus monkeys [2]; [21]): 125 s
- 25-75% recovery interval (Rhesus monkeys [2]; [22]): 12 s
- Recovery 5-95% (Rhesus monkeys [2]; [22]): 76 s
- time to 5% twitch recovery (Rhesus monkeys [2]; [22]): 10 s
- time to 25% twitch recovery (Rhesus monkeys [2]; [22]): 31 s
- time to 75% twitch recovery (Rhesus monkeys [2]; [22]): 43 s
- time to 95% twitch recovery (Rhesus monkeys [2]; [22]): 86 s
- Recovery 5% (Rhesus monkeys [2]; [23]): 24 s
- Recovery 5-95% (Rhesus monkeys [2]; [23]): 144 s
- Recovery 25% (Rhesus monkeys [2]; [23]): 42 s
- Recovery 25-75% (Rhesus monkeys [2]; [23]): 24 s
- Recovery 75% (Rhesus monkeys [2]; [23]): 66 s
- Recovery 95% (Rhesus monkeys [2]; [23]): 168 s
- 25-75% recovery interval (Rhesus monkeys [2]; [24]): 18 s
- Recovery 5-95% (Rhesus monkeys [2]; [24]): 90 s
- time to 5% twitch recovery (Rhesus monkeys [2]; [24]): 6 s
- time to 25% twitch recovery (Rhesus monkeys [2]; [24]): 18 s
- time to 75% twitch recovery (Rhesus monkeys [2]; [24]): 36 s
- time to 95% twitch recovery (Rhesus monkeys [2]; [24]): 96 s
- Recovery 5% (Rhesus monkeys [2]; [25]): 10 s
- Recovery 5-95% (Rhesus monkeys [2]; [25]): 208 s
- Recovery 25% (Rhesus monkeys [2]; [25]): 35 s
- Recovery 25-75% (Rhesus monkeys [2]; [25]): 65 s
- Recovery 75% (Rhesus monkeys [2]; [25]): 100 s
- Recovery 95% (Rhesus monkeys [2]; [25]): 218 s
- side effects at highest dosage tested (Rhesus monkeys [3]; cysteine 20 mg/kg): no negative side effects
- effect on blood pressure or heart rate (Rhesus monkeys [3]; cysteine, therapeutic range (5-10 mg/Kg), FIG. 2): no significant affect on blood pressure or heart rate

SMILES: N[C@@H](CCC(=O)N[C@@H](CS)C(=O)NCC(=O)O)C(=O)O [glutathione]
- time to complete reversal of the block in neuromuscular activity after administration (Rhesus monkeys [2]; [15]): ≤ 140 s

From US20050192243A1, “Neuromuscular blocking agents and antagonists thereof” (priority 2003, published 2005)
